Test results from ChEMBL document CHEMBL1833927, “Constructing transferrin receptor targeted drug delivery system by using doxorubicin hydrochloride and vanadocene dichloride” (Bioorg Med Chem Lett, 2011).

How the values were obtained:
[1] = target: Serotransferrin (Homo sapiens) (UniProt P02787); assay: Binding affinity to human serum transferrin after 12 hrs at pH 4.8 by spectrofluorometer method
[2] = target: Serotransferrin (Homo sapiens) (UniProt P02787); assay: Binding affinity to human apo transferrin after 12 hrs at pH 7.4 by spectrofluorometer method
[3] = system: A549; assay: Antiproliferative activity against human A549 cells by MTT assay in presence of human serum transferrin/apo transferrin; format: functional, cell-based
[4] = target: Serotransferrin (Homo sapiens) (UniProt P02787); assay: Binding affinity to human serum transferrin after 12 hrs at pH 7.4 by spectrofluorometer method
[5] = system: A549; assay: Antiproliferative activity against human A549 cells by MTT assay; format: functional, cell-based
[6] = target: Serotransferrin (Homo sapiens) (UniProt P02787); assay: Binding affinity to human apo transferrin after 12 hrs at pH 4.8 by spectrofluorometer method

Chain of Serotransferrin (Homo sapiens) (P02787 whole entry): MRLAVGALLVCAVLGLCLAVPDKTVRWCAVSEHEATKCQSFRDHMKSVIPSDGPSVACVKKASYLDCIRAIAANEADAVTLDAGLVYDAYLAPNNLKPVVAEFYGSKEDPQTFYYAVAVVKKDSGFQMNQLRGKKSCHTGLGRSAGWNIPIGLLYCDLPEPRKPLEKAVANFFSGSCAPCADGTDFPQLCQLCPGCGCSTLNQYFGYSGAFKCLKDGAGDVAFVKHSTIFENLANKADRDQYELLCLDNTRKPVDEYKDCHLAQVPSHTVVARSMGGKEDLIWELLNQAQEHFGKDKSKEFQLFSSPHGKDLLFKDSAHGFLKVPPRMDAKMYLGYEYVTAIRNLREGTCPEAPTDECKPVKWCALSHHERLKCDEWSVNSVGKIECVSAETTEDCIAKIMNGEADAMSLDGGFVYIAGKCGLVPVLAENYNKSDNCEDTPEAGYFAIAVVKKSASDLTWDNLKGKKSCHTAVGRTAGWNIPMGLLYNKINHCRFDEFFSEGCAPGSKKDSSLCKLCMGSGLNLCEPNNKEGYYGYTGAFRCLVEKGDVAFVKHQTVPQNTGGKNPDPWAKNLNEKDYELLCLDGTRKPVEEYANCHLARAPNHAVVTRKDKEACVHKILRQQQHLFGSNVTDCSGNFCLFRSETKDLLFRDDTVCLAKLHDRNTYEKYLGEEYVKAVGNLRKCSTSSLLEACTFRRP

- Ka [1]: 41900 M⁻¹
- Ka [2]: 74500 M⁻¹
- Ka [4]: 32600 M⁻¹
- Ka [6]: 271000 M⁻¹
Compound: COc1cccc2c1C(=O)c1c(O)c3c(c(O)c1C2=O)C[C@@](O)(C(=O)CO)C[C@@H]3O[C@H]1C[C@H](N)[C@H](O)[C@H](C)O1
- Activity [3]: Dose-dependent effect
- Activity [5]: Dose-dependent effect
